Structures can show the parent of a compound that is named as a salt.
experiment: in vitro; settings: rat, gh3-tre-luc cells, AC50 (uM) modified / 1000

`COS(=O)(=O)OC` [Dimethyl sulfate] and `CO[Si](CCCCl)(OC)OC` [(3-Chloropropyl)trimethoxysilane] cannot be ordered by CC50 at 24 h: greater than 90 µM for the first, greater than 90 µM for the second.

`CN1C(=O)CCS(=O)(=O)C1c1ccc(Cl)cc1` (centres unmarked) [Chlormezanone] and `Cc1c(N)cccc1Cl` [3-Chloro-2-methylaniline] cannot be ordered by CC50 at 24 h: greater than 90 µM for the first, greater than 90 µM for the second.

`CCC(=O)CC` [3-Pentanone] and `CCC(C)=O` [Methyl ethyl ketone] cannot be ordered by CC50 at 24 h: greater than 90 µM for the first, greater than 90 µM for the second.

`COCCOC(=O)c1ccccc1C(=O)OCCOC` [Di(2-methoxyethyl) phthalate] and `CCCCCCCCCCOC(=O)c1ccccc1C(=O)OCCCCCCCCCC` [Didecyl phthalate] cannot be ordered by CC50 at 24 h: greater than 90 µM for the first, greater than 90 µM for the second.

`Cc1ncc(CSSCc2cnc(C)c(O)c2CO)c(CO)c1O` [Pyrithioxin dihydrochloride] and `Nc1nc(O)c2ncn(COC(CO)CO)c2n1` [Ganciclovir] cannot be ordered by CC50 at 24 h: greater than 50 µM for the first, greater than 20 µM for the second.

Compared with `CCCCCCCC/C=C\CCCCCCCC(=O)N(CCO)CCO` [(9Z)-N,N-Bis(2-hydroxyethyl)octadec-9-enamide], `CCCCCCCCCCCCCOP(=O)(O)O` [Monotridecyl phosphate] is higher in CC50 at 24 h: 43.9 µM for the first, greater than 90 µM for the second.

`C=CCSSSCC=C` [Diallyl trisulfide] and `C=CC(=O)OCCC#N` [2-Cyanoethyl prop-2-enoate] cannot be ordered by CC50 at 24 h: greater than 50 µM for the first, greater than 90 µM for the second.

`CCCCCC(C)=O` [2-Heptanone] and `CCCCCCCCCC(=O)O` [Decanoic acid] cannot be ordered by CC50 at 24 h: greater than 90 µM for the first, greater than 50 µM for the second.

`Nc1n[nH]c(N)n1` [Guanazole] and `O=C(O)c1cc2cc(Cc3cccnc3)ccc2o1` [Furegrelate sodium] cannot be ordered by CC50 at 24 h: greater than 90 µM for the first, greater than 50 µM for the second.

`O=C(O)C(O)[C@H](O)[C@@H](O)[C@H](O)[C@H](O)CO` (stereo partly drawn) [D-Gluco-heptonic acid, monosodium salt] and `OC[C@@H](O)C(O)[C@H](O)CO` [D-Arabinitol] cannot be ordered by CC50 at 24 h: greater than 90 µM for the first, greater than 50 µM for the second.

`CO/N=C(\C(=O)N[C@@H]1C(=O)N2C(C(=O)[O-])=C(C[n+]3cccc4c3CCC4)CS[C@H]12)c1csc(N)n1` [Cefpirome sulfate] and `CC[C@H](C)C(=O)O[C@H]1CCC=C2C=C[C@H](C)[C@H](CC[C@@H]3C[C@@H](O)CC(=O)O3)[C@H]21` [Mevastatin] cannot be ordered by CC50 at 24 h: greater than 50 µM for the first, greater than 50 µM for the second.

`CCOc1ccc(NC(=O)CC(C)=O)cc1` [N-(4-Ethoxyphenyl)-3-oxobutanamide] and `CCOC(=O)c1ccc(C)cc1` [Ethyl 4-methylbenzoate] cannot be ordered by CC50 at 24 h: greater than 90 µM for the first, greater than 90 µM for the second.

First: CC[C@H]1OC(=O)[C@H](C)[C@@H](O[C@H]2C[C@@](C)(OC)[C@@H](O)[C@H](C)O2)[C@H](C)[C@@H](O[C@@H]2O[C@H](C)C[C@H](N(C)C)[C@H]2O)[C@](C)(O)C[C@@H](C)C(=O)[C@H](C)[C@@H](O)[C@]1(C)O [Erythromycin]
Second: CC1=C(/C=C/C(C)=C/C=C/C(C)=C/C=C/C=C(C)/C=C/C=C(C)/C=C/C2=C(C)C[C@@H](O)CC2(C)C)C(C)(C)C[C@H](O)C1 [Zeaxanthin]
The CC50 at 24 h of the first is higher: greater than 70 µM for the first, 28.9 µM for the second.

`CC(=O)N[C@H]1C(O)O[C@H](CO)[C@H](O)[C@@H]1O` (some centres unmarked) [N-Acetylgalactosamine] and `CC(O)C(=O)O` (centres unmarked) [Calcium lactate] cannot be ordered by CC50 at 24 h: greater than 50 µM for the first, greater than 90 µM for the second.

First: COc1ccc(C(=O)Nc2ccccc2CCC2CCCCN2C)cc1 (centres unmarked) [Encainide hydrochloride]
Second: COc1cc2[nH]c(C)c(CCN3CCN(c4ccccc4)CC3)c2cc1OC [Oxypertine hydrochloride]
The CC50 at 24 h of the first is higher: greater than 50 µM for the first, 23.2 µM for the second.

`C=C(C)C(=O)OCCNC(C)(C)C` [2-(tert-Butylamino)ethyl 2-methylprop-2-enoate] and `C=C(C)C(=O)OCC1CCCO1` (centres unmarked) [Tetrahydrofurfuryl methacrylate] cannot be ordered by CC50 at 24 h: greater than 90 µM for the first, greater than 90 µM for the second.

`CC(C)NCC(O)c1ccc(O)c(O)c1` (centres unmarked) [Isoproterenol hydrochloride] and `CC(C)NCC(O)c1ccc(N)c(C#N)c1` (centres unmarked) [Cimaterol] cannot be ordered by CC50 at 24 h: greater than 90 µM for the first, greater than 50 µM for the second.

`CCOC(=O)CCC(=O)OCC` [Diethyl butanedioate] and `CC(C)CCCCCCCOC(=O)CCCCC(=O)OCCCCCCCC(C)C` [Diisodecyl hexanedioate] cannot be ordered by CC50 at 24 h: greater than 90 µM for the first, greater than 100 µM for the second.

`COc1cc(CCC(C)=O)ccc1O` [4-(4-Hydroxy-3-methoxyphenyl)-2-butanone] and `CC(=O)OCCCc1ccccc1` [3-Phenylpropyl acetate] cannot be ordered by CC50 at 24 h: greater than 90 µM for the first, greater than 90 µM for the second.

`c1ccc2c(c1)Cc1ccccc1-2` [Fluorene] and `O=C(c1ccccc1)c1ccccc1O` [2-Hydroxybenzophenone] cannot be ordered by CC50 at 24 h: greater than 90 µM for the first, greater than 90 µM for the second.

Going from `COc1cc2c(cc1OC)[C@H]1CC(=O)[C@H](CC(C)C)CN1CC2` (racemic) [Tetrabenazine] to `COc1cc(/C=C2\CCC/C(=C\c3ccc(O)c(OC)c3)C2=O)ccc1O` [Cyclovalone], the CC50 at 24 h falls from greater than 50 µM to 7.98 µM.

`CC1(C)C(=O)N(Br)C(=O)N1Br` [1,3-Dibromo-5,5-dimethylhydantoin] and `CC1(C)C(=O)N(Br)C(=O)N1Cl` [3-Bromo-1-chloro-5,5-dimethylhydantoin] cannot be ordered by CC50 at 24 h: greater than 90 µM for the first, greater than 90 µM for the second.

`CC(=O)c1ccccc1[N+](=O)[O-]` [2-Nitroacetophenone] and `Oc1ccccc1` [Phenol] cannot be ordered by CC50 at 24 h: greater than 90 µM for the first, greater than 50 µM for the second.

First: CC(C)C(OC(=O)c1ccccc1)C(C)(C)COC(=O)c1ccccc1 (centres unmarked) [2,2,4-Trimethylpentane-1,3-diyl dibenzoate]
Second: OC(C#CCN1CCCC1)(c1ccccc1)c1ccccc1 [Butinoline]
The CC50 at 24 h of the first is 2.2-fold higher: 76 µM for the first, 35.3 µM for the second.

`c1ccc(-c2ccc(-c3ccccc3)cc2)cc1` [1,1':4',1''-Terphenyl] and `Cc1ccccc1/N=N/c1ccc(/N=N/c2c(O)ccc3ccccc23)c(C)c1` [C.I. Solvent Red 24] cannot be ordered by CC50 at 24 h: greater than 20 µM for the first, greater than 50 µM for the second.

`O=[N+]([O-])c1cc([N+](=O)[O-])c2ccc(S(=O)(=O)O)cc2c1O` [8-Hydroxy-5,7-dinitro-2-naphthalenesulfonic acid] and `CCOc1ccc(S(=O)(=O)O)c2cccnc12` [Actinoquinol] cannot be ordered by CC50 at 24 h: 65.4 µM for the first, greater than 50 µM for the second.

Going from `O=C(CS)Nc1ccccc1` [Thioglycolic acid anilide] to `CNCc1ccccc1` [N-Methylbenzylamine hydrochloride], the CC50 at 24 h rises from 33.8 µM to greater than 50 µM.

`CC(=O)Oc1cccc2c1C(=O)c1c(OC(C)=O)cc(C(=O)O)cc1C2=O` [Diacerein] and `CC(=O)Oc1cccc(C(=O)O)c1OC(C)=O` [Dipyrocetyl] cannot be ordered by CC50 at 24 h: greater than 50 µM for the first, greater than 50 µM for the second.

`CCC1(c2ccccc2)C(=O)NCNC1=O` [Primidone] and `O=C(O)CCCc1c[nH]c2ccccc12` [Indole-3-butyric acid] cannot be ordered by CC50 at 24 h: greater than 90 µM for the first, greater than 90 µM for the second.

Compared with `O=C(O)COc1ccc(CCNS(=O)(=O)c2ccccc2)s1` [Linotroban], `CCN(CC)CCOc1ccc(-c2nc3cc(Cl)ccc3s2)cc1` [Halethazole hydrochloride] is lower in CC50 at 24 h: greater than 50 µM for the first, 8.14 µM for the second.

`CCC(CO)(CO)COCC(CC)(CO)CO` [2,2'-(Oxydimethanediyl)bis(2-ethylpropane-1,3-diol)] and `CCCCOCCOCCO` [2-(2-Butoxyethoxy)ethanol] cannot be ordered by CC50 at 24 h: greater than 90 µM for the first, greater than 90 µM for the second.

Going from `CCNC(=O)[C@@H]1CCCN1C(=O)[C@H](CCCN=C(N)N)NC(=O)[C@H](CC(C)C)NC(=O)[C@@H](Cc1c[nH]c2ccccc12)NC(=O)[C@H](Cc1ccc(O)cc1)NC(=O)[C@H](CO)NC(=O)[C@H](Cc1c[nH]c2ccccc12)NC(=O)[C@H](Cc1cnc[nH]1)NC(=O)[C@@H]1CCC(=O)N1` [Deslorelin acetate] to `Cc1ccc(C(=O)Nc2ccc(S(=O)(=O)O)c3cc(S(=O)(=O)O)cc(S(=O)(=O)O)c23)cc1NC(=O)c1cccc(NC(=O)Nc2cccc(C(=O)Nc3cc(C(=O)Nc4ccc(S(=O)(=O)O)c5cc(S(=O)(=O)O)cc(S(=O)(=O)O)c45)ccc3C)c2)c1` [Suramin], the CC50 at 24 h rises from 1.89 µM to greater than 50 µM.

`CC(Cl)C(Cl)Cl` (centres unmarked) [1,1,2-Trichloropropane] and `CC(C)=CCCC(C)CC(=O)O` (centres unmarked) [Citronellic acid] cannot be ordered by CC50 at 24 h: greater than 90 µM for the first, greater than 90 µM for the second.

`CC(C)[C@@H]1CC[C@@H](C)CC1=O` [(2S,5R)-5-Methyl-2-(propan-2-yl)cyclohexanone] and `C1CCC2OC2C1` (centres unmarked) [Cyclohexene oxide] cannot be ordered by CC50 at 24 h: greater than 90 µM for the first, greater than 100 µM for the second.

`CC1=CC(O)CC(C)(C)C1` (centres unmarked) [3,5,5-Trimethyl-2-cyclohexen-1-ol] and `C[C@@]12CCC[C@H]1[C@@H]1CC[C@H]3C[C@@H](O)CC[C@]3(C)[C@H]1CC2` [5alpha-Androstan-3beta-ol] cannot be ordered by CC50 at 24 h: greater than 90 µM for the first, greater than 50 µM for the second.

Going from `CN(C)C(=O)NC1(c2ccccc2)CCN(CCC[C@]2(c3ccc(Cl)c(Cl)c3)CCCN(C(=O)c3ccccc3)C2)CC1` [SSR146977] to `O=C(NC(=O)c1c(F)cccc1F)Nc1cc(Cl)c(OC(F)(F)C(F)C(F)(F)F)cc1Cl` (centres unmarked) [Lufenuron], the CC50 at 24 h rises from 8.07 µM to greater than 90 µM.

Going from `O=C(NOC[C@H](O)CO)c1ccc(F)c(F)c1Nc1ccc(I)cc1F` [PD 0325901] to `CCCCCCCCCCCCc1ccc(O)cc1` [4-Dodecylphenol], the CC50 at 24 h falls from greater than 50 µM to 15.6 µM.

same assay, conditions: rat, gh3-tre-luc cells, AC50 (uM) modified / 1000, Tox21_110001=Tox21_110303; viability, 1 nM T3 present, 24 h

Compound `Cc1cccc(C)c1N=C1NCCCS1` [Xylazine] has a CC50 at 24 h greater than 50 µM.

same assay, conditions: rat, gh3-tre-luc cells, AC50 (uM) modified / 1000, Tox21_110001=Tox21_111336; viability, 1 nM T3 present, 24 h

Work on `CC(=O)Nc1cc([As](=O)(O)O)ccc1O` [Acetarsol] yielded a CC50 at 24 h greater than 50 µM.

same assay, conditions: rat, gh3-tre-luc cells, AC50 (uM) modified / 1000, Tox21_110001=Tox21_113513; viability, 1 nM T3 present, 24 h

For `C[C@@H]1[C@@H]2Cc3ccc(O)cc3[C@@]1(C)CCN2CC1CC1` [(+)-Cyclazocine], the CC50 at 24 h was greater than 50 µM.

same assay, conditions: rat, gh3-tre-luc cells, AC50 (uM) modified / 1000, Tox21_110001=Tox21_200283; viability, 1 nM T3 present, 24 h

Compound `O=NN(CCO)CCO` [N-Nitrosodiethanolamine] has a CC50 at 24 h greater than 90 µM.

same assay, conditions: rat, gh3-tre-luc cells, AC50 (uM) modified / 1000, Tox21_110001=Tox21_201451; viability, 1 nM T3 present, 24 h

In the case of `CNC(=O)N(C)c1nnc(C(C)(C)C)s1` [Tebuthiuron], the CC50 at 24 h is reported as greater than 90 µM.

same assay, conditions: rat, gh3-tre-luc cells, AC50 (uM) modified / 1000, Tox21_110001=Tox21_202792; viability, 1 nM T3 present, 24 h

Compound `Clc1cc2c(cc1Cl)Oc1cc(Cl)c(Cl)cc1O2` [2,3,7,8-Tetrachlorodibenzo-p-dioxin] has a CC50 at 24 h greater than 0.3 µM.
